Peptide text beside a SMILES is read from it.
Experiments:
Type in all cases: functional, cell-based
[1] = test system: SF-268; experiment: Cytotoxicity against human SF268 cells after 72 hrs by sulforhodamine B assay; conditions: SF-268, 72 h
[2] = test system: MCF7; experiment: Cytotoxicity against human MCF7 cells after 72 hrs by sulforhodamine B assay; conditions: MCF7, 72 h
[3] = test system: NCI-H460; experiment: Cytotoxicity against human NCI-H460 cells after 72 hrs by sulforhodamine B assay; conditions: NCI-H460, 72 h

Row | SMILES | IC50 [1] | IC50 [2] | IC50 [3]
1 | CC(C)C[C@@H]1NC(=O)[C@H](C(C)C)NC(=O)[C@H](Cc2ccc(O)cc2)N(C)C(=O)[C@H](Cc2ccccc2)NC(=O)CN(C)C(=O)[C@@H]2CCCN2C(=O)[C@@H](Cc2ccccc2)N(C)C1=O [Cordyheptapeptide C] (HELM PEPTIDE1{F.[meY].V.L.[CN([C@H](Cc1ccccc1)C(=O)[*:2])[*:1]].P.[Sar]}$PEPTIDE1,PEPTIDE1,1:R1-7:R2$$$V2.0) | 3.7 µM | 3 µM | 11.6 µM
2 | CC(C)C[C@@H]1NC(=O)[C@H](C(C)C)NC(=O)[C@H](Cc2ccc(O)cc2)N(C)C(=O)[C@H](Cc2ccccc2)NC(=O)CN(C)C(=O)[C@@H]2CCCN2C(=O)[C@@H](Cc2ccc(O)cc2)N(C)C1=O [Cordyheptapeptide D] | 45.6 µM | 82.7 µM | > 100 µM
3 | CC[C@@H](C)[C@@H]1NC(=O)[C@H](Cc2ccc(O)cc2)N(C)C(=O)[C@H](Cc2ccccc2)NC(=O)CN(C)C(=O)[C@@H]2CCCN2C(=O)[C@@H](Cc2ccc(O)cc2)N(C)C(=O)[C@H](CC(C)C)NC1=O [Cordyheptapeptide E] | 3.2 µM | 2.7 µM | 4.5 µM

Source: ChEMBL document CHEMBL2062458, “Cyclic heptapeptides, cordyheptapeptides C-E, from the marine-derived fungus Acremonium persicinum SCSIO 115 and their cytotoxic activities” (J Nat Prod, 2012)
